Format in all cases: in vivo
Assay [1] relates to Aphis gossypii. The assay is described as follows: Aphis gossypii test, spray, with/without ammonium salt (Example 1). The following applies: 20 ppm active compound, cotton plants sprayed to runoff. Here is the method:
(§1) Solvent: 7 parts by weight of dimethylformamide
(§2) Emulsifier: 2 parts by weight of alkylaryl polyglycol ether
To produce a suitable preparation of active compound, 1 part by weight of active compound is mixed with the stated amounts of solvent and emulsifier, and the concentrate is diluted with emulsifier-containing water to the desired concentration. For application with ammonium salts or phosphonium salts these are added in a concentration of 1000 ppm to the spray liquor.
Cotton plants (Gossypium hirsutum) which are severely infested with cotton aphids (Aphis gossypii) are treated by spraying to runoff point with the preparation of the active substance at the desired concentration.
After the desired period of time, the kill in % is determined. 100% means that all aphids have been killed; 0% means that none of the aphids have been killed.

Assay [2] relates to Myzus persicae. The assay is described as follows: Myzus persicae test, spray, activity boost by ammonium salt and penetrant (Example 2). The following applies: 0.8 ppm active compound. As for the experimental part:
Activity Boost Through Ammonium/Phosphonium Salts in Combination with Penetrants
as §1, §2
To produce a suitable preparation of active compound, 1 part by weight of active compound is mixed with the stated amounts of solvent and emulsifier, and the concentrate is diluted with water to the desired concentration. For application with ammonium salts or phosphonium salts and penetrants (rapeseed oil methyl ester 500 EW) these are added in each case in a concentration of 1000 ppm to the spray liquor.
Bell pepper plants (Capsicum annuum) which are heavily infested by the green peach aphid (Myzus persicae) are treated with the active compound preparation of the desired concentration by spraying to runoff point. After the desired period of time, the kill in % is determined. 100% means that all animals have been killed; 0% means that none of the animals have been killed.

Assay [3] has as its system Aphis gossypii. Description: Aphis gossypii test, spray, ammonium salt and penetrant (Example 3). The following applies: 20 ppm active compound. Here is the method:
Aphis gossypii Test Solvent: 7 parts by weight of dimethylformamide Emulsifier: 2 parts by weight of alkylaryl polyglycol ether To produce a suitable preparation of active compound, 1 part by weight of active compound is mixed with the stated amounts of solvent and emulsifier, and the concentrate is diluted with emulsifier-containing water to the desired concentration. For application with ammonium salts or phosphonium salts and penetrant (rapeseed oil methyl ester 500 EW) these are added in each case in a concentration of 1000 ppm (a.i.) to the spray liquor. Cotton plants (Gossypium hirsutum) which are heavily infested by the cotton aphid (Aphis gossypii) are treated with the active compound preparation of the desired concentration by spraying to runoff point. After the desired period of time, the kill in % is determined. 100% means that all aphids have been killed; 0% means that none of the aphids have been killed.

Take `COC1CCC2(CC1)NC(=O)C(c1c(C)ccc(-c3ccc(F)cc3)c1C)=C2O` (stereo not shown) [I-a-2]: the “Kill rate/% after 6 days” value in assay [1] (+AS (1000 ppm)) came out at 25%; in assay [1] (no additive) it was 15%.
For `CO[C@H]1CC[C@]2(CC1)NC(=O)C(c1cc(-c3ccc(F)cc3)ccc1C)=C2O` [I-a-1], the “Kill rate/% after 6 days” value in assay [2] (+AS (1000 ppm)) is 0%; in assay [2] (+RME (1000 ppm)), 30%; in assay [2] (+RME + AS (1000 ppm each)), 70%; in assay [2] (bell pepper plants sprayed to runoff, no additive) it was 10%; in assay [3] (+AS (1000 ppm)) it was 15%; in assay [3] (+RME (1000 ppm)) it was 70%. For the same compound, the “Kill rate/% after 6 days” value in assay [3] (+RME + AS (1000 ppm each)) was determined as 80%; in assay [3] (cotton plants sprayed to runoff, no additive) it was 5%.

The values are drawn from patent publication US8993782B2, “Cis-alkoxyspirocyclic biphenyl-substituted tetramic acid derivatives” (Bayer CropScience AG, priority 2006, dated 2015).
